In patent US9718796B2, “Substituted benzoazepines as toll-like receptor modulators” (VENTIRX PHARMACEUTICALS, INC., priority 2011, dated 2017):
Read-outs that look alike come from different tables or passages of the source.

How the values were obtained:
[1] = target: T1, hTLR8 (Homo sapiens, UniProt Q9NR97); test: HEK-293 hTLR8 transfectant antagonist assay (NF-κB driven SEAP reporter); format: cell-based; details: hTLR8 reporter cells
T1 construct: host or cells: HEK293 cells stably transfected with hTLR8
T1 sequence (Q9NR97 27-1041): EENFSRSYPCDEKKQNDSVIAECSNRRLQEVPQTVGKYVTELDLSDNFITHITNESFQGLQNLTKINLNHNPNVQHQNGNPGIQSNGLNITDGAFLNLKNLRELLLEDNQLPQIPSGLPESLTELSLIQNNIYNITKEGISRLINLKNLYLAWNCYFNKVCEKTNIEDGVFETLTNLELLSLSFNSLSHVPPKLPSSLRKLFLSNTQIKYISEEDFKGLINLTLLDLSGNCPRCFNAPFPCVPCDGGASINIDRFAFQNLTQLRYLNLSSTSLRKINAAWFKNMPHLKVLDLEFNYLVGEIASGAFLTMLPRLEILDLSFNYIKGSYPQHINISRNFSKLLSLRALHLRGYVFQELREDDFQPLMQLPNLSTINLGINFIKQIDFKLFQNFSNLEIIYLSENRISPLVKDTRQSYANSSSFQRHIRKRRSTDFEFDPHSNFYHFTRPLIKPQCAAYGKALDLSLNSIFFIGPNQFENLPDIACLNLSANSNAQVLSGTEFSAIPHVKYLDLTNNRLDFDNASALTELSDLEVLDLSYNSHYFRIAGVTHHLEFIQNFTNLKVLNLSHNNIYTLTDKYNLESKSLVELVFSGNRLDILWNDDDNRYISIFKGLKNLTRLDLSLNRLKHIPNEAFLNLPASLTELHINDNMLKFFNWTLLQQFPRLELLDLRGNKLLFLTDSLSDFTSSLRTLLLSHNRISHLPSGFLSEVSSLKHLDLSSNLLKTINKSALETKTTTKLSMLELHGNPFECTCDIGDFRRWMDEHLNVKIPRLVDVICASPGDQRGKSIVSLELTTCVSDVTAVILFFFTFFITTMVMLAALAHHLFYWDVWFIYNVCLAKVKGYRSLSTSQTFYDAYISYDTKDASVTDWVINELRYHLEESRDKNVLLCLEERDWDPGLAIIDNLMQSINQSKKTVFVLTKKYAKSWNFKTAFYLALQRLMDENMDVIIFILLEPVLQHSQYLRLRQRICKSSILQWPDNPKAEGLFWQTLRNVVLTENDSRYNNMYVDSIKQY
Procedure: The HEK-293 hTLR transfectant assay employs HEK293 cells stably transfected with various hTLRs and transiently co-transfected with a plasmid containing an NF-κB driven secreted embryonic alkaline phosphate (SEAP) reporter gene. Stimulation of TLRs activates their downstream signaling pathways and induces nuclear translocation of the transcription factor NF-κB. Reporter gene activity is then measured using a spectrophotometric assay. To measure antagonist activity, human embryonic kidney (HEK) cells (e.g., 293XL-hTLR8 cells available from InvivoGen, San Diego, Calif.) are prepared according to supplier's instructions and incubated with various concentrations of test compound overnight. The amount of induced […] is measured by reading the absorbance at 650 nm. The compounds of the invention have an MC50 of 25 μM or less, wherein MC50 is defined as the concentration at which 50% of maximum induction is seen. For the TLR8 antagonist assays, cells are transiently transfected with the reporter gene on Day 1 per the supplier's instructions. Antagonist compounds are added to the cultures on Day 2 followed by addition of a TLR8 agonist approximately 2 hours later. Cultures are incubated overnight and SEAP activity is measured on Day 3. In a typical assay, 50,000 HEK239 hTLR8 cells are seeded per culture well and transiently transfected with the SEAP reporter gene. Antagonists are added to cultures in culture medium and […] DMSO over a concentration range of 0.1 nanomolar to 10 micromolar. TLR8 agonists are added to cultures 2 hours later at a fixed concentration (e.g., 1 micromolar or 10 micromolar of Compound A) and cultures are then incubated for 16-24 hrs at 37° C. in a humidified CO incubator. Antagonists are also evaluated for activity in the absence of agonist. TLR8 antagonist activity was measured in a hTLR8 assay format, measuring IC50 values. […] IC50s were then calculated.

[2] = test system: IL-8 production in human PBMC stimulated with CL075; test: Human PBMC assay: inhibition of IL-8 production stimulated with CL075 (ELISA); format: cell-based; details: 3 to 1000 nM antagonist, 2 hours before CL075 100 ng/ML (400 nM), overnight; one donor, duplicate wells
Procedure: PBMCs contain a mixture of cells including monocytes and myeloid dendritic cells (mDCs) that express TLR8. […] The ability of TLR8 antagonists to inhibit […] in human PBMCs was evaluated. […] Data shown in FIG. 1 are a representative experiment from one donor evaluated in duplicate culture wells. […] At the end of the incubation, cells were centrifuged and cell culture supernatants were analyzed for IL-8 by ELISA (eBiosciene kit) per the manufacturer's instructions.
The experiment shown in FIG. 1 was repeated in multiple donors and with additional TLR8 antagonist molecules (see FIG. 2). […] Percent inhibition is shown on the y-axis and concentrations of TLR8 antagonists (3-1000 nM) are shown on the x-axis in FIG. 2.

[3] = IC50, nM, vs. 3M002 10 μM, agonist 3M002 10 μM
[4] = IC50, nM, vs. VTX-378 1 μM, TLR8 agonist VTX-378 (Compound A) 1 μM
[5] = TLR8 agonist VTX-378 (Compound A) 0.5 μM, read-out: IC50, nM, vs. VTX-378 0.5 μM

CCOC(=O)Nc1ccc(-c2ccc3c(c2)C=C(C(=O)OCC)CC(N)=N3)c(Cl)c1 [Compound 3261, Ethyl 2-amino-7-{2-chloro-4-[(ethoxycarbonyl)amino]phenyl}-3H-1-benzazepine-4-carboxylate]
IC50 [1, 3]: < 1000 nM | IC50 [1, 4]: < 1000 nM | IC50 [1, 5]: < 1000 nM | IL-8 levels in human PBMC stimulated with CL075 (FIG. 1) [2]: reduced in a dose dependent fashion

CCOC(=O)C1=Cc2cc(-c3ccc(N4CCOC4=O)cc3Cl)ccc2N=C(N)C1 [Compound 3387, Ethyl 2-amino-7-[2-chloro-4-(2-oxo-1,3-oxazolidin-3-yl)phenyl]-3H-1-benzazepine-4-carboxylate]
IC50 [1, 3]: < 1000 nM | IC50 [1, 4]: < 1000 nM | IC50 [1, 5]: < 1000 nM | IL-8 levels in human PBMC stimulated with CL075 (FIG. 1) [2]: reduced in a dose dependent fashion

CCOC(=O)C1=Cc2cc(-c3ccc(C(=O)N4CCCC4)cc3)ccc2N=C2NCCC12 (centres unmarked) [Compound 3448]
IC50 [1, 4]: < 1000 nM | IC50 [1, 5]: < 1000 nM | IL-8 levels in human PBMC stimulated with CL075 (FIG. 1) [2]: reduced in a dose dependent fashion
